Here are results for four molecules from paper PMC6495176, “Steroidal antibiotics are antimetabolites of Acanthamoeba steroidogenesis with phylogenetic implications” (Journal of Lipid Research, 2019).

Series [1] deals with T1, 24-AcSMT (Acanthamoeba castellanii, UniProt L8GNG7).
T1 construct: gene ACA1_193300; recombinant 24-AcSMT (XP_004336540) expressed in E. coli, lysate preparation
The series can be described thus: steady-state inhibition of cycloartenol methylation by recombinant enzyme; also turned over to ERGT (GC-MS). Type of series: biochemical.

Series [2] addresses T2, 28-AcSMT (Acanthamoeba castellanii, UniProt L8GKC5).
T2 construct: gene ACA1_237870; recombinant 28-AcSMT (XP_004335307) expressed in E. coli, lysate preparation
Description: steady-state inhibition of […]([…])-methylene lophenol methylation by recombinant enzyme, GC-MS; partition ratio and substrate protection. Type of series: biochemical.

For series [3], the target named is T3, 28-AcSMT (Acanthamoeba castellanii, UniProt L8GKC5).
T3 construct: gene ACA1_237870
T3 sequence (L8GKC5 1-346): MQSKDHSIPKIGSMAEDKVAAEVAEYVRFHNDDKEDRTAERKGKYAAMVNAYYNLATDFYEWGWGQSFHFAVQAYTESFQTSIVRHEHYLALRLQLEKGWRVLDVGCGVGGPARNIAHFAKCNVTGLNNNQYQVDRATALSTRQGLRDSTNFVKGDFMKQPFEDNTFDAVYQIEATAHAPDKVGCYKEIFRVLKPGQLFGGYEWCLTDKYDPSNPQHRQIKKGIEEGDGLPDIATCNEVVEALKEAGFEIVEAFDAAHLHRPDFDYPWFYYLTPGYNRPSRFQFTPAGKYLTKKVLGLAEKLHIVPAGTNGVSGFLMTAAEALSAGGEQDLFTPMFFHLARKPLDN
Description: MALDI-TOF mass shift and retention of 3H-label after Ni-NTA purification; GC-MS of diol products. The series is classed as binding.

Series [4] concerns the target T1, 24-AcSMT. The series can be described thus: native substrate in steady-state SMT assay (Km). The conditions noted are these: cited from earlier work. Type of series: biochemical.
Substrate in series [5]: C=C(CC[C@@H](C)[C@H]1CC[C@H]2C3=CC[C@H]4[C@H](C)[C@@H](O)CC[C@]4(C)[C@H]3CC[C@]12C)C(C)C
Description: cells, lysate or membranes. The following applies: SAM active site. The series is classed as biochemical, Acanthamoeba castellanii.

T1 sequence (L8GNG7 entry or part of it): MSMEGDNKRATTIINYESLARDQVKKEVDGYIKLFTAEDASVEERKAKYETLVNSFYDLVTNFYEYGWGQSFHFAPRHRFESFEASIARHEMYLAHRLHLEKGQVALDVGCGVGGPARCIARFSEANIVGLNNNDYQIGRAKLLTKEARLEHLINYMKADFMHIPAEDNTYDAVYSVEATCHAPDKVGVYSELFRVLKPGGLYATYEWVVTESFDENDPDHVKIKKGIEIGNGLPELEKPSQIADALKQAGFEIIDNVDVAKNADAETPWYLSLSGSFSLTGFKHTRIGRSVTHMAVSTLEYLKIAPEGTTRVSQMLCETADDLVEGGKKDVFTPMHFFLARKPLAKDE

By Ki is commonly meant the dissociation constant of the complex between target and ligand, obtained from inhibition or displacement. In the case of `CC(C)=C/C=C/[C@@H](C)[C@H]1CC[C@H]2C3=CC=C4C[C@@H](O)CC[C@]4(C)[C@H]3CC[C@]12C` [CHT], the Ki was 18 µM on 24-AcSMT [1] and 8 µM at 28-AcSMT [2].

`C=C(/C=C/[C@@H](C)[C@H]1CC[C@H]2C3=CC=C4C[C@@H](O)CC[C@]4(C)[C@H]3CC[C@]12C)C(C)C` [compound 15, ergosta-5,7,22,24(28)-tetraen-3-ol]: the “MALDI-TOF mass shift and retention of 3H-label after Ni-NTA purification; GC-MS” value at 28-AcSMT [3] is reported as “irreversible nature of the ERGT-28-AcSMT complex was further confirmed by MALDI-TOF analysis showing an increase in molecular mass”.

Usually Km stands for the substrate concentration at which the rate is half of its maximum. As for `CC(C)=CCC[C@@H](C)[C@H]1CC[C@@]2(C)[C@@H]3CC[C@H]4C(C)(C)[C@@H](O)CC[C@@]45C[C@@]35CC[C@]12C` [cycloartenol], the Km at 24-AcSMT [4] was 48 µM.

B1: 28-AcSMT (Acanthamoeba castellanii str. Neff) (protein)
chain: T3 sequence (L8GKC5 1-346)
notes: recombinant 28-AcSMT (XP_004335307) expressed in E. coli, lysate preparation
In the case of B1, the Michaelis-Menten constant (Km) in series [5] stood at 44 µM.
